Assay [1] concerns Trypanosoma brucei brucei. Kind of assay: Antitrypanosomal activity against tbAT1 deficient Trypanosoma brucei brucei at 100 uM after 2 days by alamar blue assay. Format: functional, organism-based. A general note: Alamar Blue is a resazurin reagent that responds to reducing activity.
Assay [2] deals with Trypanosoma brucei brucei. Nature of the assay: Antitrypanosomal activity against wild type Trypanosoma brucei brucei expressing P2 transporter at 100 uM after 2 days by alamar blue assay. Format: functional, organism-based.

Drawing on ChEMBL document CHEMBL1208752, “Selective delivery of 2-hydroxy APA to Trypanosoma brucei using the melamine motif” (Bioorg Med Chem Lett, 2010), this text covers EC50 for four molecules.

As for `CC(Nc1nc(N)nc(N)n1)C(=O)OC(CN)CON.Cl.Cl` (centres undefined), the EC50 result in assay [1] was “Not Active”.
With `Cl.Cl.NCC(O)CON` (centres undefined), in assay [2], the EC50 entry is reported as “Not Active”.
Consider `Cl.Cl.NCC(CON)OC(=O)CNc1nc(N)nc(N)n1` (centres undefined), for which, in assay [1], the EC50 result is given as “Not Active”.
Take `Cl.Cl.NCC(CON)OC(=O)CCNc1nc(N)nc(N)n1` (centres undefined): the EC50 entry in assay [1] is reported as “Not Active”.
